Reference: paper PMC5796035 (2017)

What was measured:
[1] = tested on: R12.51 (DNA, aptamer) TGTACCGTCTGAGCGATTCGTACAGTTTCTGGAGGACTGGGCGGGGTGACGGTTATGAGCCAGTCAGTGTTAAGGAGTGC; experiment: competitive elution from immobilised fipronil, fluorescence; settings: 100 mM NaCl, 2 mM MgCl2, 20 mM Tris-HCl
[2] = tested on: R12.51 (DNA, aptamer) TGTACCGTCTGAGCGATTCGTACAGTTTCTGGAGGACTGGGCGGGGTGACGGTTATGAGCCAGTCAGTGTTAAGGAGTGC; experiment: plate-based fluorescence saturation binding; settings: 100 mM NaCl, 2 mM MgCl2; immobilised compound (maleic anhydride plate); 20 mM Tris-HCl; mean of four assays (55, 35, 38, 64 nM)

`N#Cc1nn(-c2c(Cl)cc(C(F)(F)F)cc2Cl)c(N)c1S(=O)(=O)C(F)(F)F` was tested, and the binding ([1]; 1 µM, displaces MRE from immobilised fipronil, fipronil/compound ratio 1.07) was “yes”.
`N#Cc1nn(-c2c(Cl)cc(C(F)(F)F)cc2Cl)c(N)c1S(=O)C(F)(F)F` (centres unmarked) was tested, and the Kd [2] was 48 ± 8 nM and the binding ([1]; free compound 1 µM, normalized fluorescence 2.413 (no target 0.247)) was “yes”.
`N#Cc1nn(-c2c(Cl)cc(C(F)(F)F)cc2Cl)c(N)c1C(F)(F)F` was tested, and the binding ([1]; 1 µM, displaces MRE from immobilised fipronil, fipronil/compound ratio 1.16) was “yes”.
In the case of `CCC(=O)Nc1ccc(Cl)c(Cl)c1`, the binding ([1]; 1 µM, fipronil/compound ratio 1.52 (5.05 at 200 nM in river water/buffer)) is reported as “weak”.
With `CCS(=O)c1c(C#N)nn(-c2c(Cl)cc(C(F)(F)F)cc2Cl)c1N` (centres unmarked) the binding ([1]; 1 µM, displaces MRE from immobilised fipronil, fipronil/compound ratio 1.10) was “yes”.
`CCNc1nc(Cl)nc(NC(C)C)n1` was tested, and the binding ([1]; 1 µM, fipronil/compound ratio 1.23 (4.80 at 200 nM in river water/buffer)) was “weak”.
`N#Cc1nn(-c2c(Cl)cc(C(F)(F)F)cc2Cl)c(N)c1SC(F)(F)F` was tested, and the binding ([1]; 1 µM, displaces MRE from immobilised fipronil, fipronil/compound ratio 0.89) was “yes”.
